Reference: paper PMC9246196, “Novel pyrrolopyrimidine derivatives: design, synthesis, molecular docking, molecular simulations and biological evaluations as antioxidant and anti-inflammatory agents” (Journal of Enzyme Inhibition and Medicinal Chemistry, 2022)
≈ marks a conversion by molar mass, not a printed value. Each block holds one compound with its values, some of them ahead of it.

Columns and labels:
[1] = DPPH radical scavenging assay; assay type: biochemical
Experimental: DPPH scavenging potential of samples was determined with a slightly modified method[47]^,[48]. Each sample was prepared at 500 ppm. Serial concentrations of samples were prepared (200 µL, 400 µL and 800 µL). Methanol was added to complete the total volume to 1 mL and all the samples were vortexed well. 1 mL of 0.1 mM DPPH methanolic solution was added to each diluted sample. All the samples were vortexed again, then left to stand for 30 min in the dark at environment temperature. The absorption of the developed colour appeared against the blank reagent was measured at 517 nm using a spectrophotometer. BHT was used as a standard antioxidant. The capability to scavenge DPPH radical was estimated using the following equation: DPPH scavenging ability (% inhibition)=[(A0−A*)/A0]×100
A0 is Control absorption and A* is sample absorption.

RAW 264.7 cells = experiment: MTT cytotoxicity against RAW 264.7 macrophage cells; assay type: cell-based; conditions: RAW 264.7, MTT
Experimental: The macrophage cell line, RAW 264.7 was obtained from the ATCC (American type culture collection). The cells were cultured in RPMI 1640 medium (Roswell Park Memorial Institute) and supplemented with 1% pen/strep and 10% heat-inactivated foetal bovine serum. The cells were incubated, in a humidified incubator, in an atmosphere of 5% CO2 at 37 °C and were subculture twice before the experiment.
(§1) RAW 264.7 cells were suspended in a RPMI medium. After 24 h of seeding 1 × 10^5 cells per well (in 96 well plates) and incubated for 24 h for the experiments. The cells were then treated with the samples at concentrations of 100, 50, 25 and 12.5 μg/mL and incubated for 1 h. They were then stimulated with 10 μg/mL of LPS for another 24 h. The supernatant was gently transferred to new 96-well plates and used for NO determination, while the cells that remained in the old plate were used for the MTT assay of cell viability. Samples (stock) were dissolved in DMSO, and the working samples were prepared in the media. Cell viability was assessed by the mitochondrial dependent reduction of yellow MTT (3–(4,5-dimethylthiazol-2-yl)-2,5-diphenyltetrazolium bromide) to purple formazan.
The percentage of change in viability was calculated according to the formula: [(Reading of extract /Reading of negative control )−1]×100.

[2] = test system: LPS-stimulated NO production by RAW 264.7 macrophages; experiment: Nitric oxide assay (Griess) in LPS-induced RAW 264.7 macrophages; assay type: cell-based; conditions: Mus musculus; for IC50: RAW264.7, LPS-induced RAW 264.7, read-out: NO inhibition IC50; for inhibition at 12.5 µg/mL / inhibition at 25 µg/mL / inhibition at 50 µg/mL / inhibition at 100 µg/mL: RAW264.7, LPS 10 µg/mL, read-out: NO % inhibition (mean ± SEM)
Experimental: as §1
Nitric oxide production was assayed by measuring nitrite in the supernatants of cultured LPS-RAW 264.7 cells. The assay was carried out as described previously with slight modification[48]^,[50]. After pre-incubation of RAW 264.7 cells (1 × 10^5 cells/mL) with LPS (10 µg/mL) for 24 h, the amount of nitrite, a stable metabolite of NO used as an indicator of NO production in the culture medium was measured using the Griess reagent (1% sulphanilamide and 0.1% naphthyl ethylenediamine dihydrochloride in 2.5% phosphoric acid). A volume of 50 µL of the cell culture medium was mixed with 50 µL of the Griess reagent. Subsequently, the mixture was incubated at room temperature for 15 min and the absorbance was measured at 540 nm by a microplate reader. Fresh culture medium was used as a blank in every experiment. The quantity of nitrite was determined from a sodium nitrite standard curve as expressed in the equation. Nitric oxide inhibition (%)=(optical denisty of control−optical denisty of test /optical denisty of control ) ×100.

Structure (SMILES): S=c1[nH]nc2c3c(-c4ccccc4)cn(-c4ccc(Cl)cc4)c3ncn12 [4b, 7–(4-Chlorophenyl)-9-phenyl-7H-pyrrolo[3,2-e][1,2,4]triazolo[4,3-c]pyramid in-3-thione]
DPPH radical-scavenging IC50 [1]: 129.38 µg/mL
DPPH % Inhibition (mean ± SEM) ([1]; conc. 100 (µg/mL)): 37.97 ± 0.71%
DPPH % Inhibition (mean ± SEM) ([1]; conc. 200 (µg/mL)): 77.76 ± 1.60%
DPPH % Inhibition (mean ± SEM) ([1]; conc. 400 (µg/mL)): 79.55 ± 1.06%
Cytotoxicity of raw cells% (mean ± SEM) (RAW 264.7 cells; 12.5 µg/mL): 0%
Cytotoxicity of raw cells% (mean ± SEM) (RAW 264.7 cells; 25 µg/mL): 69.6 ± 1.3%
Cytotoxicity of raw cells% (mean ± SEM) (RAW 264.7 cells; 50 µg/mL): 75.2 ± 2.5%
Cytotoxicity of raw cells% (mean ± SEM) (RAW 264.7 cells; 100 µg/mL): 85.4 ± 0.6%
IC50 [2]: 64.8 µg/mL (≈ 171 µM)
inhibition at 12.5 µg/mL [2]: 39.8 ± 1.9%
inhibition at 25 µg/mL [2]: 52.8 ± 1.1%
inhibition at 50 µg/mL [2]: 54.3 ± 1.6%
inhibition at 100 µg/mL [2]: 58.1 ± 3.5%
melting point: 187 to 189 °C

Structure (SMILES): Cc1cc(C)n(-c2ncnc3c2c(-c2ccccc2)cn3-c2ccc(Cl)cc2)n1 [7b, 7–(4-Chlorophenyl)-4–(3,5-dimethyl-pyrazol-1-yl)-5-phenyl-pyrrolo[2,3-d]pyrimidine]
melting point: 199 to 201 °C

Structure (SMILES): Clc1ccc(-n2cc(-c3ccccc3)c3c2ncn2cnnc32)cc1 [3b, 7–(4-Chlorophenyl)-9-phenyl-7H-pyrrolo[3,2-e][1,2,4]triazolo[4,3-c] pyrimidine]
melting point: 190 to 192 °C

Structure (SMILES): Cc1nnc2c3c(-c4ccccc4)cn(-c4ccc(Cl)cc4)c3ncn12 [5b, 7–(4-Chlorophenyl)-3-methyl-9-phenyl-7H-pyrrolo[3,2-e][1,2,4]triazolo[4,3-c] pyrimidine]
melting point: 201 to 203 °C

Structure (SMILES): NNc1ncnc2c1c(-c1ccccc1)cn2-c1ccc(Cl)cc1 [2b, (7–(4-Chlorophenyl)-5-phenyl-7H-pyrrolo[2,3-d]pyrimidin-4-yl)-hydrazine]
melting point: 217 to 219 °C

Structure (SMILES): Cc1nnc2c3c(-c4ccccc4)cn(-c4cccc(Cl)c4)c3ncn12 [5a, 7–(3-Chlorophenyl)-3-methyl-9-phenyl-7H-pyrrolo[3,2-e][1,2,4]triazolo[4,3-c] pyrimidine]
melting point: 227 to 229 °C

Structure (SMILES): Cc1cc(C)n(-c2ncnc3c2c(-c2ccccc2)cn3-c2cccc(Cl)c2)n1 [7a, 7–(3-Chlorophenyl)-4–(3,5-dimethyl-pyrazol-1-yl)-5-phenyl-pyrrolo[2,3-d]pyrimidine]
melting point: 180 to 182 °C

Structure (SMILES): Clc1cccc(-n2cc(-c3ccccc3)c3c2ncn2cnnc32)c1 [3a, 7–(3-Chlorophenyl)-9-phenyl-7H-pyrrolo[3,2-e][1,2,4]triazolo[4,3-c] pyrimidine]
DPPH radical-scavenging IC50 [1]: 160.05 µg/mL
DPPH % Inhibition (mean ± SEM) ([1]; conc. 100 (µg/mL)): 39.56 ± 0.88%
DPPH % Inhibition (mean ± SEM) ([1]; conc. 200 (µg/mL)): 58.09 ± 1.50%
DPPH % Inhibition (mean ± SEM) ([1]; conc. 400 (µg/mL)): 62.51 ± 0.32%
Cytotoxicity of raw cells% (mean ± SEM) (RAW 264.7 cells; 12.5 µg/mL): 0%
Cytotoxicity of raw cells% (mean ± SEM) (RAW 264.7 cells; 25 µg/mL): 76.5 ± 1.9%
Cytotoxicity of raw cells% (mean ± SEM) (RAW 264.7 cells; 50 µg/mL): 78.7 ± 2.2%
Cytotoxicity of raw cells% (mean ± SEM) (RAW 264.7 cells; 100 µg/mL): 92.0 ± 1.6%
IC50 [2]: 57.3 µg/mL (≈ 166 µM)
inhibition at 12.5 µg/mL [2]: 40.6 ± 2.6%
inhibition at 25 µg/mL [2]: 53.1 ± 1.3%
inhibition at 50 µg/mL [2]: 62.5 ± 1.2%
inhibition at 100 µg/mL [2]: 65.6 ± 1.2%
melting point: 176 to 178 °C

Structure (SMILES): NNc1ncnc2c1c(-c1ccccc1)cn2-c1cccc(Cl)c1 [2a, (7–(3-Chlorophenyl)-5-phenyl-7H-pyrrolo[2,3-d]pyrimidin-4-yl)-hydrazine]
melting point: 204 to 206 °C

Structure (SMILES): O=c1[nH]nc2c3c(-c4ccccc4)cn(-c4ccc(Cl)cc4)c3ncn12 [6b, 7–(4-Chlorophenyl)-9-phenyl-7H-pyrrolo[3,2-e][1,2,4]triazolo[4,3-c]pyrimidin-3-one]
melting point: 233 to 235 °C

Structure (SMILES): O=c1[nH]nc2c3c(-c4ccccc4)cn(-c4cccc(Cl)c4)c3ncn12 [6a, 7–(3-Chlorophenyl)-9-phenyl-7H-pyrrolo[3,2-e][1,2,4]triazolo[4,3-c]pyrimidin-3-one]
melting point: 226 to 228 °C

Now from value to compound, other results behind:

melting point: 187 to 189 °C
Structure (SMILES): Clc1ccc(/C=N/Nc2ncnc3c2c(-c2ccccc2)cn3-c2ccc(Cl)cc2)cc1 [8d, 7–(4-Chlorophenyl)-N-[(E)-(4-chlorophenyl)methyleneamino]-5-phenyl-pyrrolo[2,3-d]pyrimidin-4-amine]

melting point: 247 to 249 °C
Structure (SMILES): Clc1ccc(/C=N/Nc2ncnc3c2c(-c2ccccc2)cn3-c2cccc(Cl)c2)cc1 [8c, 7–(3-Chlorophenyl)-N-[(E)-(4-chlorophenyl)methyleneamino]-5-phenyl-pyrrolo[2,3-d]pyrimidin-4-amine]

melting point: 194 to 196 °C
Structure (SMILES): COc1ccc(/C=N/Nc2ncnc3c2c(-c2ccccc2)cn3-c2ccc(Cl)cc2)cc1 [8f, 7–(4-Chlorophenyl)-N-[(E)-(4-methoxyphenyl)methyleneamino]-5-phenyl-pyrrolo[2,3-d]pyrimidin-4-amine]

DPPH radical-scavenging IC50 [1]: 128.77 µg/mL
Structure (SMILES): Cc1cc(C(C)(C)C)c(O)c(C(C)(C)C)c1 [BHT, butylated hydroxytoluene, reference compound]
DPPH % Inhibition (mean ± SEM) ([1]; conc. 100 (µg/mL)): 40.03 ± 0.39%
DPPH % Inhibition (mean ± SEM) ([1]; conc. 200 (µg/mL)): 76.81 ± 0.21%
DPPH % Inhibition (mean ± SEM) ([1]; conc. 400 (µg/mL)): 90.07 ± 0.26%

melting point: 187 to 189 °C
Structure (SMILES): Clc1cccc(-n2cc(-c3ccccc3)c3c(N/N=C/c4ccccc4)ncnc32)c1 [8a, N-[(E)-benzylideneamino]-7–(3-chlorophenyl)-5-phenyl-pyrrolo[2,3-d]pyrimidin-4-amine]

DPPH radical-scavenging IC50 [1]: 122.07 µg/mL
IC50 [2]: ~53 µg/mL (≈ 117 µM)
melting point: 167 to 169 °C
Structure (SMILES): COc1ccc(/C=N/Nc2ncnc3c2c(-c2ccccc2)cn3-c2cccc(Cl)c2)cc1 [8e, 7–(3-Chlorophenyl)-N-[(E)-(4-methoxyphenyl)methyleneamino]-5-phenyl-pyrrolo[2,3-d]pyrimidin-4-amine]
DPPH % Inhibition (mean ± SEM) ([1]; conc. 100 (µg/mL)): 40.63 ± 2.13%
DPPH % Inhibition (mean ± SEM) ([1]; conc. 200 (µg/mL)): 82.15 ± 0.14%
DPPH % Inhibition (mean ± SEM) ([1]; conc. 400 (µg/mL)): 85.22 ± 0.17%
Cytotoxicity of raw cells% (mean ± SEM) (RAW 264.7 cells; 12.5 µg/mL): 0%
Cytotoxicity of raw cells% (mean ± SEM) (RAW 264.7 cells; 25 µg/mL): 65 ± 3.1%
Cytotoxicity of raw cells% (mean ± SEM) (RAW 264.7 cells; 50 µg/mL): 73.1 ± 1.3%
Cytotoxicity of raw cells% (mean ± SEM) (RAW 264.7 cells; 100 µg/mL): 77.7 ± 1.5%
inhibition at 12.5 µg/mL [2]: 38.7 ± 1.7%
inhibition at 25 µg/mL [2]: 66.5 ± 3.7%
inhibition at 50 µg/mL [2]: 67.5 ± 1.8%
inhibition at 100 µg/mL [2]: 71.8 ± 1%

melting point: 172 to 174 °C
Structure (SMILES): Clc1ccc(-n2cc(-c3ccccc3)c3c(N/N=C/c4ccccc4)ncnc32)cc1 [8b, N-[(E)-benzylideneamino]-7–(4-chlorophenyl)-5-phenyl-pyrrolo[2,3-d]pyrimidin-4-amine]
